Assay results from a compilation of properties of binary mixtures (doi:10.1016/j.molliq.2022.118933).

Experiment: xn = mol fraction of the nth substance listed
Conditions: 100 kPa

CCCC[N+](C)(C)C[c-]1cccc1.O=S(=O)([N-]S(=O)(=O)C(F)(F)F)C(F)(F)F.[Fe+2].c1cc[cH-]c1 + CC#N
Conditions | electrical conductivity [S/m]
298 K, x1 = 0.01 | 1.35
298 K, x1 = 0.02 | 1.89
298 K, x1 = 0.05 | 2.2
298 K, x1 = 0.06 | 2.14
298 K, x1 = 0.07 | 2.07
298 K, x1 = 0.08 | 1.96
298 K, x1 = 0.1 | 1.8
298 K, x1 = 0.12 | 1.45
298 K, x1 = 0.15 | 1.17
298 K, x1 = 0.2 | 0.759
303 K, x1 = 0.01 | 1.41
303 K, x1 = 0.02 | 1.98
303 K, x1 = 0.03 | 2.28
303 K, x1 = 0.05 | 2.32
303 K, x1 = 0.06 | 2.28
303 K, x1 = 0.07 | 2.2
303 K, x1 = 0.08 | 2.07
303 K, x1 = 0.12 | 1.57
303 K, x1 = 0.15 | 1.24
303 K, x1 = 0.2 | 0.843
308 K, x1 = 0.01 | 1.47
308 K, x1 = 0.02 | 2.06
308 K, x1 = 0.03 | 2.39
308 K, x1 = 0.05 | 2.45
308 K, x1 = 0.06 | 2.41
308 K, x1 = 0.07 | 2.33
308 K, x1 = 0.1 | 2.01
308 K, x1 = 0.12 | 1.7
308 K, x1 = 0.15 | 1.36
313 K, x1 = 0.01 | 1.53
313 K, x1 = 0.02 | 2.15
313 K, x1 = 0.03 | 2.5
313 K, x1 = 0.05 | 2.57
313 K, x1 = 0.06 | 2.54
313 K, x1 = 0.08 | 2.34
313 K, x1 = 0.1 | 2.14
313 K, x1 = 0.12 | 1.81
313 K, x1 = 0.15 | 1.46
313 K, x1 = 0.2 | 1.04
318 K, x1 = 0.02 | 2.23
318 K, x1 = 0.03 | 2.6
318 K, x1 = 0.05 | 2.7
318 K, x1 = 0.07 | 2.61
318 K, x1 = 0.1 | 2.28
318 K, x1 = 0.12 | 1.94
323 K, x1 = 0.02 | 2.33
323 K, x1 = 0.03 | 2.71
323 K, x1 = 0.05 | 2.82
323 K, x1 = 0.06 | 2.8
323 K, x1 = 0.07 | 2.74
323 K, x1 = 0.08 | 2.6
323 K, x1 = 0.1 | 2.41
323 K, x1 = 0.12 | 2.07
323 K, x1 = 0.15 | 1.69
328 K, x1 = 0.01 | 1.69
328 K, x1 = 0.02 | 2.42
328 K, x1 = 0.03 | 2.82
328 K, x1 = 0.06 | 2.93
328 K, x1 = 0.07 | 2.87
328 K, x1 = 0.08 | 2.74
328 K, x1 = 0.1 | 2.55
328 K, x1 = 0.15 | 1.82
328 K, x1 = 0.2 | 1.34
333 K, x1 = 0.05 | 3.08
333 K, x1 = 0.06 | 3.06
333 K, x1 = 0.08 | 2.88
333 K, x1 = 0.1 | 2.69
333 K, x1 = 0.12 | 2.32
333 K, x1 = 0.15 | 1.94
333 K, x1 = 0.2 | 1.46
338 K, x1 = 0.01 | 1.8
338 K, x1 = 0.02 | 2.59
338 K, x1 = 0.03 | 3.03
338 K, x1 = 0.06 | 3.21
338 K, x1 = 0.08 | 3.02
338 K, x1 = 0.1 | 2.83
338 K, x1 = 0.12 | 2.46
338 K, x1 = 0.15 | 2.06
338 K, x1 = 0.2 | 1.57
343 K, x1 = 0.01 | 1.86
343 K, x1 = 0.02 | 2.67
343 K, x1 = 0.03 | 3.14
343 K, x1 = 0.05 | 3.33
343 K, x1 = 0.06 | 3.34
343 K, x1 = 0.1 | 2.96
343 K, x1 = 0.12 | 2.6
343 K, x1 = 0.2 | 1.7
348 K, x1 = 0.01 | 1.91
348 K, x1 = 0.03 | 3.24
348 K, x1 = 0.05 | 3.45
348 K, x1 = 0.06 | 3.46
348 K, x1 = 0.1 | 3.11
348 K, x1 = 0.15 | 2.32
348 K, x1 = 0.2 | 1.81
